ChEMBL document CHEMBL1201862, “PubChem BioAssay data set” (2004)
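Where inhibition never reached the appropriate level, the endpoint shown equals the highest concentration tested. Otherwise, values were interpolated linearly from a five-concentration, 48-hour dose response in 96-well plates. Here, GI50 denotes the concentration required for 50% inhibition of growth.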 Activity calls are given as the source filed them. No stated cut-off is given here; in the data, active = GI50 up to about 1.1 µM and inactive = higher.

Key:
Experiment in all cases: NCI tumour cell line growth inhibition, 48 h
[1] = test system: HCT-15
[2] = test system: SN12C
[3] = test system: K562
[4] = test system: RPMI-8226
[5] = test system: SF-295
[6] = test system: IGROV-1
[7] = test system: MDA-N
[8] = test system: A549
[9] = test system: EKVX
[10] = test system: SNB-75
[11] = test system: SW-620
[12] = test system: M14
[13] = test system: KM12
[14] = test system: UACC-257
[15] = test system: UACC-62
[16] = test system: Malme-3M
[17] = test system: HCC 2998
[18] = test system: CCRF-CEM
[19] = test system: A498
[20] = test system: CAKI-1
[21] = test system: HOP-62
[22] = test system: SK-OV-3
[23] = test system: NCI-H226
[24] = test system: BT-549
[25] = test system: LOX IMVI
[26] = test system: OVCAR-5
[27] = test system: PC-3
[28] = test system: MDA-MB-231
[29] = test system: HCT-116
[30] = test system: HOP-92
[31] = test system: ACHN
[32] = test system: SK-MEL-2
[33] = test system: MDA-MB-435
[34] = test system: SR
[35] = test system: DU-145
[36] = test system: COLO 205
[37] = test system: TK-10
[38] = test system: NCI-H23
[39] = test system: OVCAR-3
[40] = test system: NCI/ADR-RES
[41] = test system: OVCAR-8
[42] = test system: UO-31
[43] = test system: U-251
[44] = test system: 786-0
[45] = test system: OVCAR-4
[46] = test system: SK-MEL-5
[47] = test system: NCI-H522
[48] = test system: SF-268
[49] = test system: T47D
[50] = test system: HL-60
[51] = test system: HT-29
[52] = test system: MOLT-4
[53] = test system: SF-539
[54] = test system: RXF 393
[55] = test system: NCI-H460
[56] = test system: SNB-19
[57] = test system: SK-MEL-28
[58] = test system: MCF7

CCCCNC(=S)Nc1nc(C(=O)NNC(=O)c2ccccc2)cs1
GI50 [1]: 6 µM
GI50 [2]: 17.3 µM (inactive)
GI50 [3]: 44.5 µM (inactive)
GI50 [4]: 26.1 µM (inactive)
GI50 [5]: 15.2 µM (inactive)
GI50 [6]: 13.8 µM (inactive)
GI50 [7]: 17.5 µM (inactive)
GI50 [8]: 20.4 µM (inactive)
GI50 [9]: 12.8 µM (inactive)
GI50 [10]: 32.6 µM (inactive)
GI50 [11]: 14 µM (inactive)
GI50 [12]: 14.9 µM (inactive)
GI50 [13]: 15.2 µM (inactive)
GI50 [14]: 17.9 µM (inactive)
GI50 [15]: 17.6 µM (inactive)
GI50 [16]: 18.7 µM (inactive)
GI50 [17]: 13.7 µM (inactive)
GI50 [18]: 27.9 µM (inactive)
GI50 [19]: 30.3 µM (inactive)
GI50 [20]: 20.9 µM (inactive)
GI50 [21]: 18 µM (inactive)
GI50 [22]: 17.5 µM (inactive)
GI50 [23]: 21.3 µM (inactive)
GI50 [24]: 18.1 µM (inactive)
GI50 [25]: 10.1 µM (inactive)
GI50 [26]: 17.6 µM (inactive)
GI50 [27]: 15.5 µM (inactive)
GI50 [28]: 12.5 µM (inactive)
GI50 [29]: 13.1 µM (inactive)
GI50 [30]: 40.2 µM (inactive)
GI50 [31]: 15.9 µM (inactive)
GI50 [32]: 19.6 µM (inactive)
GI50 [33]: 19.7 µM (inactive)
GI50 [34]: 29.6 µM (inactive)
GI50 [35]: 19.6 µM (inactive)
GI50 [36]: 13.3 µM (inactive)
GI50 [37]: 19.6 µM (inactive)
GI50 [38]: > 10 µM (inactive)
GI50 [39]: 6.14 µM (inactive)
GI50 [40]: 16.9 µM (inactive)
GI50 [41]: 17.4 µM (inactive)
GI50 [42]: 14.1 µM (inactive)
GI50 [43]: 11.8 µM (inactive)
GI50 [44]: 16.7 µM (inactive)
GI50 [45]: 9.29 µM (inactive)
GI50 [46]: 10.8 µM (inactive)
GI50 [47]: 19.3 µM (inactive)
GI50 [48]: 25.9 µM (inactive)
GI50 [49]: 11.5 µM (inactive)
GI50 [50]: 96.6 µM (inactive)
GI50 [51]: 24 µM (inactive)
GI50 [52]: 20.5 µM (inactive)

CC(CO)C1C[C@H](O)[C@@]2(C)CC(=O)C=C(CO)[C@@H]2C1 (stereo not given in full)
GI50 [1]: > 100 µM
GI50 [2]: > 100 µM (inactive)
GI50 [5]: > 100 µM (inactive)
GI50 [6]: > 100 µM (inactive)
GI50 [7]: > 100 µM (inactive)
GI50 [8]: > 100 µM (inactive)
GI50 [9]: > 100 µM (inactive)
GI50 [10]: > 100 µM (inactive)
GI50 [53]: > 100 µM (inactive)
GI50 [11]: > 100 µM (inactive)
GI50 [12]: > 100 µM (inactive)
GI50 [13]: > 100 µM (inactive)
GI50 [14]: > 100 µM (inactive)
GI50 [15]: > 100 µM (inactive)
GI50 [17]: > 100 µM (inactive)
GI50 [19]: > 100 µM (inactive)
GI50 [20]: > 100 µM (inactive)
GI50 [21]: > 100 µM (inactive)
GI50 [54]: > 100 µM (inactive)
GI50 [22]: > 100 µM (inactive)
GI50 [55]: > 100 µM (inactive)
GI50 [23]: > 100 µM (inactive)
GI50 [24]: > 100 µM (inactive)
GI50 [25]: > 100 µM (inactive)
GI50 [26]: > 100 µM (inactive)
GI50 [28]: > 100 µM (inactive)
GI50 [29]: > 100 µM (inactive)
GI50 [30]: > 100 µM (inactive)
GI50 [56]: > 100 µM (inactive)
GI50 [31]: > 100 µM (inactive)
GI50 [32]: > 100 µM (inactive)
GI50 [57]: > 100 µM (inactive)
GI50 [33]: > 100 µM (inactive)
GI50 [35]: > 100 µM (inactive)
GI50 [36]: > 100 µM (inactive)
GI50 [37]: > 100 µM (inactive)
GI50 [38]: > 100 µM (inactive)
GI50 [39]: > 100 µM (inactive)
GI50 [40]: > 100 µM (inactive)
GI50 [41]: > 100 µM (inactive)
GI50 [42]: > 100 µM (inactive)
GI50 [43]: > 100 µM (inactive)
GI50 [44]: > 100 µM (inactive)
GI50 [45]: > 100 µM (inactive)
GI50 [46]: > 100 µM (inactive)
GI50 [58]: > 100 µM (inactive)
GI50 [48]: > 100 µM (inactive)
GI50 [49]: > 100 µM (inactive)
GI50 [50]: 92 µM (inactive)
GI50 [51]: > 100 µM (inactive)
GI50 [52]: > 100 µM (inactive)

CC(=O)OCC1OC(O[C@@H]2C[C@H]3C(C)(C)[C@H](OC(C)=O)CC[C@]3(C)[C@H]3CCC4=C([C@@H](C)C[C@@H](O)[C@H](O)C(C)(C)O)CC[C@@]4(C)[C@@]32C)C(O)C(O)C1O (stereo not given in full)
GI50 [43]: 14.6 µM (inactive)
GI50 [48]: 13.6 µM (inactive)
